The source of these data is paper PMC8900816, “High-resolution structures of the bound effectors avadomide (CC-122) and iberdomide (CC-220) highlight advantages and limitations of the MsCI4 soaking system” (Acta Crystallographica. Section D, Structural Biology, 2022).

The assay concerns the target T1, MsCI4 (Magnetospirillum gryphiswaldense, UniProt A4TVL0).
T1 construct: gene MGR_0879; wild-type single-domain bacterial cereblon homologue; pETHis1a, E. coli C41(DE3); His tag removed with TEV; three monomers per asymmetric unit; structural zinc; RED-NHS amine-labelled for MST
T1 sequence (A4TVL0 1-124): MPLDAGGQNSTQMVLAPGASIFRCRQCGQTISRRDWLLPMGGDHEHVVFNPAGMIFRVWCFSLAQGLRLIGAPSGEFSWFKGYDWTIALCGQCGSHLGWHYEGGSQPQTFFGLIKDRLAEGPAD
The assay can be described thus: labelled microscale thermophoresis. It counts as binding. As to conditions: read-out: MsCI4 (K d, μM) / Labelled MST. A general note: MST reads how a fluorescent partner responds to local heating, with and without ligand.

Take `O=C1CC[C@H](N2Cc3c(OCc4ccc(CN5CCOCC5)cc4)cccc3C2=O)C(=O)N1` [Iberdomide]: the Kd stood at 0.409 ± 0.03 µM. Turning to `Cc1nc2cccc(N)c2c(=O)n1[C@H]1CCC(=O)NC1=O` [Avadomide], the Kd came to 4.84 ± 0.3 µM.
